Consider 1 molecule from ChEMBL document CHEMBL5137068, “Discovery of Hexahydrofuro[3,2-b]furans as New Kinase-Selective and Orally Bioavailable JAK3 Inhibitors for the Treatment of Leukemia Harboring a JAK3 Activating Mutant” (J Med Chem, 2022).

In data set [1] the target is T1, Tyrosine-protein kinase JAK3 (Homo sapiens, UniProt P52333).
T1 sequence (P52333 whole entry): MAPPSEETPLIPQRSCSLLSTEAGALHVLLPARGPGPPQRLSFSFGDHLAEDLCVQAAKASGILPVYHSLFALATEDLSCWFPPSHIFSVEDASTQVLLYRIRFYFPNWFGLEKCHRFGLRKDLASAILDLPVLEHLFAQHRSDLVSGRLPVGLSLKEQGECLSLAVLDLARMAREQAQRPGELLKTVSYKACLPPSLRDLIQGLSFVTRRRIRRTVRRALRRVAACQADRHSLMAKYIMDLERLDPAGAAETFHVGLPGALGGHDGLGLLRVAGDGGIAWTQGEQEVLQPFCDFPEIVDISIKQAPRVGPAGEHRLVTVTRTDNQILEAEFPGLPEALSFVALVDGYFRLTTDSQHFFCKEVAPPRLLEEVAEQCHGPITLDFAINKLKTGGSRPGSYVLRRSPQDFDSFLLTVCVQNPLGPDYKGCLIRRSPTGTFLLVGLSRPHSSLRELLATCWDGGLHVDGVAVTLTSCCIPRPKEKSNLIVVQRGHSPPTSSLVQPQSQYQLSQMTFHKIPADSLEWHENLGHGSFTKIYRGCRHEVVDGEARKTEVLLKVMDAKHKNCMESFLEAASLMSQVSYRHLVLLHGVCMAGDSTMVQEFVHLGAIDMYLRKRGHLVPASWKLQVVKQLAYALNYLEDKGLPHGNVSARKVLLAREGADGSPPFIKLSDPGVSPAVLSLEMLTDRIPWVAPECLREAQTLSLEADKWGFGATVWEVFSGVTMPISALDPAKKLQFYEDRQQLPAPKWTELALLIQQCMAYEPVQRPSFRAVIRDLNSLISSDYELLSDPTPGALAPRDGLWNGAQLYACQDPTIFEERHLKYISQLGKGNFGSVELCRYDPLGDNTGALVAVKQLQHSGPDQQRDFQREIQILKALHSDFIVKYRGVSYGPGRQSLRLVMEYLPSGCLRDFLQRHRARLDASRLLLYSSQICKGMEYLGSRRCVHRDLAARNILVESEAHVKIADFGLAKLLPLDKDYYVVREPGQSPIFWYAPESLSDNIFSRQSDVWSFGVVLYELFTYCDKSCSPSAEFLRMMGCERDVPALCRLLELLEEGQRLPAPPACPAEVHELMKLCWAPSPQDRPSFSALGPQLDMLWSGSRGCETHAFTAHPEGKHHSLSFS
Description: Inhibition of GST tagged recombinant human JAK3 expressed in baculovirus infection system by FRET assay

The nature of data set [2]: Half life in 12 hr fasted SPF Sprague-Dawley rat at 15 mg/kg, po upon 2 hrs fasting post-administration measured upto 24 hrs. Type of data set: ADME, organism-based. As to conditions: in vivo.
Data set [3] is described as follows: Cmax in 12 hr fasted SPF Sprague-Dawley rat at 15 mg/kg, po upon 2 hrs fasting post-administration measured upto 24 hrs. Type of data set: ADME, organism-based. More on the design: time < 24 hrs, dose 15 mg/kg, route po. As to conditions: in vivo.
Data set [4] in a line: AUC(0 to infinity) in 12 hr fasted SPF Sprague-Dawley rat at 5 mg/kg, iv upon 2 hrs fasting post-administration measured upto 24 hrs. The class given is ADME, organism-based. On the set-up: dose 5 mg/kg, time < 24 hrs, route iv. Conditions: in vivo.
In data set [5] the target is Cyclin-Y/Cyclin-dependent kinase 16 (Homo sapiens, UniProt Q00536). The data set can be described thus: Inhibition of human CDK16/cyclin-Y protein-protein complex. The class given is protein-complex assay.
Chain of Cyclin-Y/Cyclin-dependent kinase 16 (Q00536 whole entry): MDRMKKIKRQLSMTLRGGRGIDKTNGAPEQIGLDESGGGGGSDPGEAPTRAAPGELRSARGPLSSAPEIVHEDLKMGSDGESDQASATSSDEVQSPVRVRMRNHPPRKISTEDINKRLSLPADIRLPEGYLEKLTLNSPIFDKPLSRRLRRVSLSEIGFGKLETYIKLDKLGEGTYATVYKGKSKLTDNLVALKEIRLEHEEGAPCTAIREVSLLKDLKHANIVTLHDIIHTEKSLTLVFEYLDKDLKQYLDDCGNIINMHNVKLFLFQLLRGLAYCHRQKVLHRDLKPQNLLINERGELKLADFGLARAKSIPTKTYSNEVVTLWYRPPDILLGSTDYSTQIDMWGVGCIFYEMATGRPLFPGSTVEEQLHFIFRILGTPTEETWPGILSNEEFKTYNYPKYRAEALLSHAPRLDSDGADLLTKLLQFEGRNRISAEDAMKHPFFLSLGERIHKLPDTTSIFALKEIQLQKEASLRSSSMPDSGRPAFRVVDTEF
Chain of Cyclin-Y/Cyclin-dependent kinase 16 (Q8ND76 whole entry, further chain): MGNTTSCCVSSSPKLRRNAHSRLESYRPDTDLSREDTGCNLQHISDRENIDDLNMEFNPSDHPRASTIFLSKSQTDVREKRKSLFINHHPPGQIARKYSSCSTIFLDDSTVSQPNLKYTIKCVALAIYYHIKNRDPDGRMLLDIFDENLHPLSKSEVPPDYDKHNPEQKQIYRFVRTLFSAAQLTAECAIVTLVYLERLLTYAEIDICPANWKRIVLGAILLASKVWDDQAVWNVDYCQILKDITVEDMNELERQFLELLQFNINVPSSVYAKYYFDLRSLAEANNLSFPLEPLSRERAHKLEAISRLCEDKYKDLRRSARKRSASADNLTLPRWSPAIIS
The target of data set [6] is Non-receptor tyrosine-protein kinase TYK2 (Homo sapiens, UniProt P29597). The data set can be described thus: Inhibition of human TYK2.
Chain of Non-receptor tyrosine-protein kinase TYK2 (P29597 whole entry): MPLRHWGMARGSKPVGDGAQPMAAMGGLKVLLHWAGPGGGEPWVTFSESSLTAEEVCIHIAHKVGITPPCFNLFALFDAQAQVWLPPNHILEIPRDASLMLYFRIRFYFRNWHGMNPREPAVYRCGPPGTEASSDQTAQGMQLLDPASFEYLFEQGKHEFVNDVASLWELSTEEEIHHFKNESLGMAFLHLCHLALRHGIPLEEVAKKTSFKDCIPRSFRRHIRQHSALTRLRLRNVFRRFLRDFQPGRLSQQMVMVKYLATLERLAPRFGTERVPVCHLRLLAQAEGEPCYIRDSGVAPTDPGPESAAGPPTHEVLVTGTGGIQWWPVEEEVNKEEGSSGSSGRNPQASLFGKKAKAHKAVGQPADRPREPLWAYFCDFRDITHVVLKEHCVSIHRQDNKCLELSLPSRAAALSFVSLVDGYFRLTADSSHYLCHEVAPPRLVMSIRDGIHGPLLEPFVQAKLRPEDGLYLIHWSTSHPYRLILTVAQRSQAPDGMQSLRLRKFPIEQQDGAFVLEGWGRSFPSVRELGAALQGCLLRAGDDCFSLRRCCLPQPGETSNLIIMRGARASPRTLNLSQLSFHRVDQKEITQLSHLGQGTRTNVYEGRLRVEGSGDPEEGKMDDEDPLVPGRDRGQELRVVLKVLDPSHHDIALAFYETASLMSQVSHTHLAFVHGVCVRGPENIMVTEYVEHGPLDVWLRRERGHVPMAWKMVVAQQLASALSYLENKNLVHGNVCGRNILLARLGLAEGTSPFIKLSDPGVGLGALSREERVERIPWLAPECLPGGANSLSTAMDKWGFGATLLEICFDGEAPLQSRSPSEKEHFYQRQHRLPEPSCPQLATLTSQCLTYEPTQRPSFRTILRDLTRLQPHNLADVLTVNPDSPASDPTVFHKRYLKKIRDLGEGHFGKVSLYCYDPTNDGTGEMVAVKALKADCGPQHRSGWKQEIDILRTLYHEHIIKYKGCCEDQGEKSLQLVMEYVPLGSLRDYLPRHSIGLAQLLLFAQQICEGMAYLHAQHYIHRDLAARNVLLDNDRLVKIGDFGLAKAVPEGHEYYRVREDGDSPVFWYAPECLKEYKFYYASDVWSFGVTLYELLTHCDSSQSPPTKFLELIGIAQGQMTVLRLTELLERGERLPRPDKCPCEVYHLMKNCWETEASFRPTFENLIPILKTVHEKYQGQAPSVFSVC
For data set [7], the target named is Cytoplasmic tyrosine-protein kinase BMX (Homo sapiens) (UniProt P51813). The data set can be described thus: Inhibition of BMX (unknown origin) at 0.5 uM relative to control.
Chain of Cytoplasmic tyrosine-protein kinase BMX (Homo sapiens) (P51813 whole entry): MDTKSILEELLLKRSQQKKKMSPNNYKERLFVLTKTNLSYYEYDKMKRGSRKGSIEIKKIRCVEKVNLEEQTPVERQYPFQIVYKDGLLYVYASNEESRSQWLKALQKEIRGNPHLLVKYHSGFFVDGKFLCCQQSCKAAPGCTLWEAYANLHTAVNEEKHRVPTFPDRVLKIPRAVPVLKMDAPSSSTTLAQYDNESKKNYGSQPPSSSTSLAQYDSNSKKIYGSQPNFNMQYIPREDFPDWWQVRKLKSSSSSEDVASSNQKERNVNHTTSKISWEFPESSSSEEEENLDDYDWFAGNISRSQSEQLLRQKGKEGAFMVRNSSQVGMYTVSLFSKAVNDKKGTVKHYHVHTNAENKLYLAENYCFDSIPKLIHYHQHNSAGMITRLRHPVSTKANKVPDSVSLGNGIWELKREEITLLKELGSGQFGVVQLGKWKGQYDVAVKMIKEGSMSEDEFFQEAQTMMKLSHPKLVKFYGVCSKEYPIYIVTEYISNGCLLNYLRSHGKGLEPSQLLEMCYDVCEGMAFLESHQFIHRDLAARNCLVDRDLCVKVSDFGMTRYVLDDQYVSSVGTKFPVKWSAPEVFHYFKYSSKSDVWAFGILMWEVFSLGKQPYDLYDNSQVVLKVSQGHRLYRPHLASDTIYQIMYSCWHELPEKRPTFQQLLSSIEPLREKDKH
The target in data set [8] is T2, Signal transducer and activator of transcription 5A (Homo sapiens) (UniProt P42229).
T2 sequence (whole entry): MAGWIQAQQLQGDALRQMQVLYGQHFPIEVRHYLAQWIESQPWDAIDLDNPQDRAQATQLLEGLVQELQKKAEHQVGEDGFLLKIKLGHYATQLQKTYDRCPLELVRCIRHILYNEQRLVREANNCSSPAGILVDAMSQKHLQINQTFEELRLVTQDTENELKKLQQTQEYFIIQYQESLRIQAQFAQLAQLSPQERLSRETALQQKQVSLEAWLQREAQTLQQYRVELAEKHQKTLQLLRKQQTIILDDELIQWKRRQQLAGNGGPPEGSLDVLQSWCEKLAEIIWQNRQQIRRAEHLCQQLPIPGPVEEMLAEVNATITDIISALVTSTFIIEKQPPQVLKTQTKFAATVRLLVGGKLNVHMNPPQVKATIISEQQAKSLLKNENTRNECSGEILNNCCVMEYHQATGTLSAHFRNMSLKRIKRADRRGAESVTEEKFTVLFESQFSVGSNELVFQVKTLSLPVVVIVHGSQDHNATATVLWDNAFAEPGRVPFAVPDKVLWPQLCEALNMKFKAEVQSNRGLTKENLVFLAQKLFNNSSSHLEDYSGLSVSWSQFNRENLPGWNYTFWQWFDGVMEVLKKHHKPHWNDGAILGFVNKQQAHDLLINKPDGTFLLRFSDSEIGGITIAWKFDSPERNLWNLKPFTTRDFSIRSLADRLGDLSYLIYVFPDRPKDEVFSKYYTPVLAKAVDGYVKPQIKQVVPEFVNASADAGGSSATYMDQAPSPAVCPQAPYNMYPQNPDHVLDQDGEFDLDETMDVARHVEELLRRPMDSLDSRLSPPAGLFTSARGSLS
The data set can be described thus: Inhibition of STAT5 in human U-937 cells assessed as decrease in P-STAT5 phosphorylation at 200 uM pretreated for 10 hrs followed by compound washout by immunoblotting analysis. The class given is cell-based. Background: Immunoblotting shows a protein as a band on a membrane.

Data set [9] concerns the target T3, Tyrosine-protein kinase JAK3 (Homo sapiens) (UniProt P52333).
T3 sequence (whole entry): T1 sequence (P52333 whole entry)
The data set can be described thus: Inhibition of JAK3 activation in human U-937 cells assessed as decrease in P-STAT5 incubated for 0 to 24 hrs by Western blot analysis. Type of data set: cell-based. Conditions: time 0-24 hrs, DDE = dose-dependent effect.

The subject of data set [10] is U-937. The data set can be described thus: Induction of cell cycle arrest in human U-937 cells assessed as accumulation at G0/G1 phase at 11 nM measured after 24 hrs by propidium iodide staining based flow cytometric analysis (reference value: 62.95%). Type of data set: functional. A general note: Flow cytometry measures light scatter and fluorescence of single cells or particles in a stream.

The test system of data set [11] is U-937. Briefly: Induction of cell cycle arrest in human U-937 cells assessed as accumulation at G0/G1 phase at 100 nM measured after 24 hrs by propidium iodide staining based flow cytometric analysis (reference value: 62.95%). Type of data set: functional.
The test system of data set [12] is U-937. Briefly: Induction of cell cycle arrest in human U-937 cells assessed as downregulation of CDK2 at 0 to 300 nM measured after 24 hrs by western blot analysis. As to conditions: dose 0-300 nM. The class given is functional, cell-based.
The subject of data set [13] is U-937. The data set can be described thus: Induction of cell cycle arrest in human U-937 cells assessed as downregulation of CDK4 at 0 to 300 nM measured after 24 hrs by western blot analysis. Type of data set: functional, cell-based. As to conditions: dose 0-300 nM.
Data set [14] concerns U-937. Briefly: Induction of cell cycle arrest in human U-937 cells assessed as downregulation of Cyclic D3 at 0 to 300 nM measured after 24 hrs by western blot analysis. The class given is functional, cell-based. Conditions: dose 0-300 nM.
Data set [15] addresses Tyrosine-protein kinase ITK/TSK (Homo sapiens) (UniProt Q08881). The data set can be described thus: Inhibition of ITK (unknown origin) at 0.5 uM assessed as competition rate relative to control.
The next data set concerns BaF3. Briefly: cells. As to conditions: Mus musculus, BaF3, 72 h.

Active and inactive are the calls of the source. No cut-off for these calls is given here.

Chain of Tyrosine-protein kinase ITK/TSK (Homo sapiens) (Q08881 whole entry): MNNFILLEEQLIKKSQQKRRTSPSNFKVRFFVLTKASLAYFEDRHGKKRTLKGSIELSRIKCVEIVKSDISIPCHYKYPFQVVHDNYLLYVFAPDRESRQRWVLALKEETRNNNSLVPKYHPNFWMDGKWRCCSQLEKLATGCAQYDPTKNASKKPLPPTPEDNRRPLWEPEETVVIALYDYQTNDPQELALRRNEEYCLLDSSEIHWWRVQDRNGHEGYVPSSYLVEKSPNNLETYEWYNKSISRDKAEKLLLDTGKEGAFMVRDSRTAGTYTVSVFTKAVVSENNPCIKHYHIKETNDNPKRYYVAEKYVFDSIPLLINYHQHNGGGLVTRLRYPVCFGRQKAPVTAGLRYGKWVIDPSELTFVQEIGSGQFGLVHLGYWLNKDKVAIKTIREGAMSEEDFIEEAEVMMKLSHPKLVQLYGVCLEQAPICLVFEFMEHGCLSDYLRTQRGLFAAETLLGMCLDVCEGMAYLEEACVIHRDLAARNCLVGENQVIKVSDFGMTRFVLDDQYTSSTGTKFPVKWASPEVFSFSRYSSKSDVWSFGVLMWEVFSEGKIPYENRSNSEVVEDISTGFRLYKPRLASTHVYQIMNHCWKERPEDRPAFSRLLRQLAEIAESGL

For the molecule `C=CC(=O)Nc1cc(Nc2ncc(Cl)c(O[C@@H]3CO[C@H]4[C@@H]3OC[C@H]4OC)n2)ccc1N(C)CCN(C)C`, the IC50 (commonly the concentration that inhibits the measured activity by half) amounted to 1.2 nM in data set [1], 135 nM in [5], 365 nM in [6] and 178 nM in the data set with BaF3. For the same molecule, the half-life (usually how long it takes for the measured level to halve) in [2] is 58.8 min. In addition, the Cmax – broadly, the peak of the concentration-time curve – in data set [3] was 238 ng/mL. The AUC(0-inf) – broadly, the area under the concentration-time curve extrapolated to infinity – in data set [4] amounted to 537 ng·h/mL. Moreover, the inhibition (in general, the drop in the measured response relative to a control, in per cent) is 71% in data set [7], “Dde” in data set [9] and 40% in [15]. For the same molecule, the inhibition entry in [8] is “Active”. Besides, the Activity in the data set with U-937 [10] stood at 62.58%; in the data set with U-937 [11], 72.06%. For the same molecule, the outcome with U-937 [12], in the data set with U-937 [13] and in the data set on U-937 [14] was Active.
